Numbers after ± are expanded uncertainties.
Conditions: Gas chromatography

SMILES	vapor or sublimation pressure (298.15 K, Metastable liquid) [kPa]	vapor or sublimation pressure (310 K, Metastable liquid) [kPa]	vapor or sublimation pressure (320 K, Metastable liquid) [kPa]	vapor or sublimation pressure (330 K, Metastable liquid) [kPa]	vapor or sublimation pressure (340 K, Metastable liquid) [kPa]	vapor or sublimation pressure (350 K, Metastable liquid) [kPa]	vapor or sublimation pressure (360 K, Metastable liquid) [kPa]	vapor or sublimation pressure (370 K, Metastable liquid) [kPa]	vapor or sublimation pressure (380 K, Metastable liquid) [kPa]	vapor or sublimation pressure (390 K, Metastable liquid) [kPa]	vapor or sublimation pressure (400 K, Metastable liquid) [kPa]	vapor or sublimation pressure (410 K, Metastable liquid) [kPa]	vapor or sublimation pressure (420 K, Metastable liquid) [kPa]	vapor or sublimation pressure (430 K, Metastable liquid) [kPa]	vapor or sublimation pressure (440 K, Metastable liquid) [kPa]	also measured
C=C1CC[C@@]23C[C@@H]1C(C)(C)[C@@H]2CC[C@H]3C [beta-cedrene]	0.0031	0.0081	0.017	0.035 ± 0.017	0.067 ± 0.03	0.12 ± 0.051	0.21 ± 0.081	0.37 ± 0.12	0.61 ± 0.17	0.99 ± 0.23	1.5 ± 0.3	2.3 ± 0.38	3.5 ± 0.49	5.1 ± 0.65	7.3 ± 0.89	vapor or sublimation pressure (533.3 K, Metastable liquid): 101.3 ± 10 kPa
CC1=CC[C@@]23C[C@@H]1C(C)(C)[C@@H]2CC[C@H]3C [alpha-cedrene]	0.0031	0.0081	0.017	0.035 ± 0.017	0.067 ± 0.03	0.12 ± 0.051	0.22 ± 0.082	0.37 ± 0.12	0.61 ± 0.17	0.99 ± 0.23	1.5 ± 0.3	2.4 ± 0.38	3.5 ± 0.49	5.1 ± 0.65	7.3 ± 0.89	vapor or sublimation pressure (533.2 K, Metastable liquid): 101.3 ± 10 kPa
C1C2CC3C4CC5CC(C14)C(C2)C3C5 [pentacyclo[7.3.1.1(4,12).0(2,7).0(6,11)]tetradecane]	0.0016	0.0043	0.0091	0.018	0.036	0.066	0.12	0.2	0.34	0.55	0.87 ± 0.42	1.3 ± 0.61	2 ± 0.83	3 ± 1.1	4.3 ± 1.5	vapor or sublimation pressure (516 K, Metastable liquid): 44.3 ± 4.4 kPa; vapor or sublimation pressure (526 K, Metastable liquid): 56 ± 5.6 kPa; vapor or sublimation pressure (536 K, Metastable liquid): 71 ± 7.1 kPa; vapor or sublimation pressure (546 K, Metastable liquid): 89 ± 8.9 kPa
C1C2CC3CC1CC(C2)C3 [adamantane]	–	–	–	–	–	–	–	–	–	–	–	–	–	–	–	vapor or sublimation pressure (298.15 K, Liquid): 0.13 kPa; vapor or sublimation pressure (310 K, Liquid): 0.26 kPa; vapor or sublimation pressure (320 K, Liquid): 0.46 kPa; vapor or sublimation pressure (330 K, Liquid): 0.77 kPa; vapor or sublimation pressure (340 K, Liquid): 1.3 kPa; vapor or sublimation pressure (350 K, Liquid): 2 kPa; vapor or sublimation pressure (360 K, Liquid): 3.1 ± 1.4 kPa; vapor or sublimation pressure (370 K, Liquid): 4.6 ± 1.8 kPa; vapor or sublimation pressure (380 K, Liquid): 6.8 ± 2.3 kPa; vapor or sublimation pressure (390 K, Liquid): 9.8 ± 2.9 kPa; vapor or sublimation pressure (400 K, Liquid): 14 ± 3 kPa; vapor or sublimation pressure (410 K, Liquid): 19 ± 4 kPa; vapor or sublimation pressure (420 K, Liquid): 26 ± 5 kPa; vapor or sublimation pressure (430 K, Liquid): 35 ± 5 kPa; vapor or sublimation pressure (440 K, Liquid): 46 ± 6 kPa; vapor or sublimation pressure (545 K, Liquid): 460 ± 46 kPa; vapor or sublimation pressure (555 K, Liquid): 550 ± 55 kPa; vapor or sublimation pressure (565 K, Liquid): 650 ± 65 kPa; vapor or sublimation pressure (575 K, Liquid): 760 ± 76 kPa

— the NIST ThermoML archive (doi:10.1016/j.jct.2018.02.016)
